In US20250206761A1, “HALOINDOLE MACROCYCLIC COMPOUNDS FOR THE TREATMENT OF CANCER” (Hoffmann-La Roche Inc., priority 2022, published 2025):
pIC50: −log10 of the molar value.

Assays:
[1] = tested on: NCI-H358 (ATCC-CRL5807) cells; assay: Cell viability assay, G12C (NCI-H358); assay type: cell-based, human; conditions: Homo sapiens; KRAS cell viability, NCI-H358, 72 hrs, Cell Counting Kit-8
How it was run: (§1)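 After overnight attachment, cells received compounds (0.5% DMSO) for 72 hrs; viability was then quantified with CCK-8, reading OD450 minus OD650, and IC50 values were obtained from a 4-parameter concentration-response fit.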

[2] = tested on: AGS (ATCC-CRL-1739) cells; assay: Cell viability assay, G12D (AGS); assay type: cell-based, human; conditions: Homo sapiens, KRAS cell viability, 72 hrs, Cell Counting Kit-8
How it was run: as §1

[3] = tested on: SW620 (ATCC-CCL-227); assay: Cell viability assay, G12V (SW620); assay type: cell-based, human; conditions: Homo sapiens, SW-620; KRAS cell viability, SW620, 72 hrs, Cell Counting Kit-8
How it was run: as §1

[4] = target: KRAS G12C-BRAF complex (Homo sapiens (Human), UniProt P01116+P62937, G12C); assay: KRAS-BRAF with CYPA (500 nM) interaction assay (TR-FRET), G12C; assay type: biochemical
[5] = target: KRAS G12D binding to BRAF (Homo sapiens (Human), UniProt P01116+P62937, G12D); assay: KRAS-BRAF with CYPA (500 nM) interaction assay (TR-FRET), G12D; assay type: biochemical
[6] = target: KRAS G12V binding to BRAF (Homo sapiens (Human), UniProt P01116+P62937, G12V); assay: KRAS-BRAF with CYPA (500 nM) interaction assay (TR-FRET), G12V; assay type: biochemical
How it was run: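 A TR-FRET assay measured how compound, in the presence of CYPA, disrupts binding of GMPPNP-loaded 6His-KRAS G12V to BRAF. The buffer contained 25 mM HEPES PH=7.4, 0.002% Tween20, 0.1% BSA, 100 mM NaCl, 5 mM MgCl2 and 10 μM GMPPNP. Compounds ran as a 16-point 3-fold dilution series from 10 μM for 3 hours.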

[7] = tested on: phosphorylation of ERK, KRAS G12C in NCJ-H358 cells; assay: pERK inhibition assay, KRAS G12C; assay type: cell-based, human; conditions: Homo sapiens, 4 hours
How it was run: (§2)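 ERK phosphorylation is measured after 4 h of compound exposure in attached cells, using a colorimetric immunoassay on fixed, permeabilized monolayers. IC50 is derived by 4-parameter sigmoidal fitting.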

[8] = tested on: phosphorylation of ERK, KRAS G12D in AGS cells; assay: pERK inhibition assay, KRAS G12D; assay type: cell-based, human; conditions: Homo sapiens, 4 hours
Protocol: This assay is to measure the ability of test compounds in inhibiting the phosphorylation of ERK, the downstream signaling of KRAS G12C in NCJ-H358 cells, KRAS G12D in AGS cells, and KRAS G12V in SW620. NCJ-H358 (ATCC-CRL5807) cells, AGS (ATCC-CRL-1739) cells, SW620 (ATCC-CCL-227) cells were all grown and maintained using RPMI-1640 medium (Thermo Fisher Scientific) with 10% fetal bovine serum and 1% penicillin/streptomycin. On the day prior to compound addition, cells were plated in tissue culture-treated 96 well plates (Corning-3699) at a density of 30,000 cell/well, 20,000 cell/well, 30,000 cell/well for NCJ-H358, AGS and SW620 respectively, and allowed for attachment overnight. Diluted compounds were then added in a final concentration of 0.5% DMSO. After 4 hours of incubation, the medium was removed, 100 μL of 4% formaldehyde was added, and the assay plates were incubated at room temperature for 20 minutes. The plates were then washed once with phosphate buffered saline (PBS), and permeabilized with 100 μL of chilled methanol for 10 minutes. Non-specific antibody binding to the plates was blocked using 50 μL 1×BSA blocking buffer (Thermo-37520, 10-fold dilution by Phosphate-Buffered Saline Tween (PBST) for at least 1 hour at room temperature.
The amount of phosphor-ERK was determined using an antibody specific for phosphorylated form of ERK. Primary antibody (pERK, CST-4370, Cell Signaling Technology) was diluted 1:300 in blocking buffer, with 50 μL aliquoted to each well, and incubated overnight at 4′° C. Cells was washed five times for 5 minutes with PBST. Secondary antibody ([…] anti-rabbit IgG, CST-7074, Cell Signaling Technology) was diluted 1:1000 in blocking buffer, and 50 μL was added to each well and incubated 1-2 hrs at room temperature. Cells was washed 5 times for 5 minutes with PBST, 100 μL TMB ELISA substrate (abcam-ab171523) were added and gently shake for 20 minutes. 50 μL stop solution (abcam-ab171529) were added, and then read the signal (OD450) by EnVision.
IC50 was determined by fitting a 4-parameter sigmoidal concentration response model.

[9] = tested on: phosphorylation of ERK, KRAS G12V in SW620; assay: pERK inhibition assay, KRAS G12V; assay type: cell-based, human; conditions: Homo sapiens, SW-620, SW620, 4 hours
How it was run: as §2

KRAS G12C-BRAF complex, sequence (P01116-2 other isoform, or with tags, fused parts or gaps G12C): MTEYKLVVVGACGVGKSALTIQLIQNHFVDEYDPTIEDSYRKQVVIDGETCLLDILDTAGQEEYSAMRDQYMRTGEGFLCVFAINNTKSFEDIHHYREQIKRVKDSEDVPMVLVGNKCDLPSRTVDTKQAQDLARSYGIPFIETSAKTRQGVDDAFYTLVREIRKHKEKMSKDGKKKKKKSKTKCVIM
KRAS G12C-BRAF complex, sequence (P62937 whole entry): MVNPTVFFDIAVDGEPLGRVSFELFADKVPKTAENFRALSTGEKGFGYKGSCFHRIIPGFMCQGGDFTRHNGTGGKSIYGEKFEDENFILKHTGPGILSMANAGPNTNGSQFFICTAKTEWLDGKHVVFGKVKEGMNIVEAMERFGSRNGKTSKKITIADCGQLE
KRAS G12V binding to BRAF, sequence (P01116-2 other isoform, or with tags, fused parts or gaps G12V): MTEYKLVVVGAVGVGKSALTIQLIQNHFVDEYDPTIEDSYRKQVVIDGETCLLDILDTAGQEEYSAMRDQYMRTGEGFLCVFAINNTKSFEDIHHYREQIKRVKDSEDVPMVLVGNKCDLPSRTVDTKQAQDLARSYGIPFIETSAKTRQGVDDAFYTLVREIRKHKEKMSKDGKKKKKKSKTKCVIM
KRAS G12V binding to BRAF, sequence (P62937 whole entry): as the sequence (P62937 whole entry) above
KRAS G12D binding to BRAF, sequence (P01116-2 other isoform, or with tags, fused parts or gaps G12D): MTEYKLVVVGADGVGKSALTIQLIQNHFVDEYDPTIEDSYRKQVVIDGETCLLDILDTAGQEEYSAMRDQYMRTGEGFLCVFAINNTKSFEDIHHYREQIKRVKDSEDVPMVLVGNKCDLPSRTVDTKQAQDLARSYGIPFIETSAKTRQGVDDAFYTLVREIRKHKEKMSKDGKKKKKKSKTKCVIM
KRAS G12D binding to BRAF, sequence (P62937 whole entry): as the sequence (P62937 whole entry) above

| SMILES | pIC50 [1] | pIC50 [2] | pIC50 [3] | pIC50 [4] | pIC50 [5] | pIC50 [6] | pIC50 [7] | pIC50 [8] | pIC50 [9] |
| --- | --- | --- | --- | --- | --- | --- | --- | --- | --- |
| CCn1c(-c2cc(N3CCN(CC(F)(F)F)CC3)cnc2[C@H](C)OC)c2c3cc(c(F)cc31)-c1csc(n1)C[C@H](NC(=O)[C@H](C(C)C)N(C)C(=O)[C@H]1CCN(C(=O)[C@H](F)Cl)C1)C(=O)N1CCC[C@H](N1)C(=O)OCC(C)(C)C2 (atropisomer, axis not shown; (M)) [Example 33, (3S)-1-[(2R)-2-chloro-2-fluoro-acetyl]-N-[(1S)-1-[[(7S,13S)-21-ethyl-24-fluoro-(20M)-20-[2-[(1S)-1-methoxyethyl]-5-[4-(2,2,2-trifluoroethyl)piperazin-1-yl]-3-pyridyl]-17,17-dimethyl-8,14-dioxo-15-oxa-4-thia-9,21,27,28-tetrazapentacyclo[17.5.2.1^2,5.1^9,13.0^22,26]octacosa-1(25),2,5(28),19,22(26),23-hexaen-7-yl]carbamoyl]-2-methyl-propyl]-N-methyl-pyrrolidine-3-carboxamide] | > 9.00 | 6.47 | 7.41 | 7.74 | < 5.00 | < 5.00 | 8.40 | 7.72 | 8.10 |
| CCn1c(-c2cc(N3CCN(C)CC3)cnc2[C@H](C)OC)c2c3cc(c(F)cc31)-c1csc(n1)C[C@H](NC(=O)[C@H](C(C)C)N(C)C(=O)[C@H]1CCN(C(=O)[C@H](F)Cl)C1)C(=O)N1CCC[C@H](N1)C(=O)OCC(C)(C)C2 (atropisomer, axis not shown; (M)) [Example 32, (3S)-1-[(2R)-2-chloro-2-fluoro-acetyl]-N-[(1S)-1-[[(7S,13S)-21-ethyl-24-fluoro-(20M)-20-[2-[(1S)-1-methoxyethyl]-5-(4-methylpiperazin-1-yl)-3-pyridyl]-17,17-dimethyl-8,14-dioxo-15-oxa-4-thia-9,21,27,28-tetrazapentacyclo[17.5.2.1^2,5.1^9,13.0^22,26]octacosa-1(25),2,5(28),19,22(26),23-hexaen-7-yl]carbamoyl]-2-methyl-propyl]-N-methyl-pyrrolidine-3-carboxamide] | > 9.00 | 6.10 | 6.37 | 7.25 | < 5.00 | < 5.00 | 9.00 | 7.85 | 7.68 |
| CCn1c(-c2cc(N3CCN(C)CC3)cnc2[C@H](C)OC)c2c3cc(c(F)cc31)-c1csc(n1)C[C@H](NC(=O)[C@H](C(C)C)N1CC[C@]3(CCN(C(=O)[C@H](F)Cl)C3)C1=O)C(=O)N1CCC[C@H](N1)C(=O)OCC(C)(C)C2 (atropisomer, axis not shown; (M)) [Example 31, (2S)-2-[(5S)-7-[(2R)-2-chloro-2-fluoro-acetyl]-1-oxo-2,7-diazaspiro[4.4]nonan-2-yl]-N-[(7S,13S)-21-ethyl-24-fluoro-(20M)-20-[2-[(1S)-1-methoxyethyl]-5-(4-methylpiperazin-1-yl)-3-pyridyl]-17,17-dimethyl-8,14-dioxo-15-oxa-4-thia-9,21,27,28-tetrazapentacyclo[17.5.2.1^2,5.1^9,13.0^22,26]octacosa-1(25),2,5(28),19,22(26),23-hexaen-7-yl]-3-methyl-butanamide] | > 9.00 | 6.63 | 7.36 | 7.36 | < 5.00 | 5.70 | 8.30 | 7.62 | 7.92 |
| CO[C@@H](C)c1ncc(N2CCN(CC(F)(F)F)CC2)cc1-c1c2c3cc(c(F)cc3n1CC(F)(F)F)-c1csc(n1)C[C@H](NC(=O)[C@H](C(C)C)N(C)C(=O)[C@H]1CCN(C(=O)[C@H](F)Cl)C1)C(=O)N1CCC[C@H](N1)C(=O)OCC(C)(C)C2 (atropisomer, axis not shown; (M)) [Example 26, (3S)-1-[(2R)-2-chloro-2-fluoro-acetyl]-N-[(1S)-1-[[(7S,13S)-24-fluoro-(20M)-20-[2-[(1S)-1-methoxyethyl]-5-[4-(2,2,2-trifluoroethyl)piperazin-1-yl]-3-pyridyl]-17,17-dimethyl-8,14-dioxo-21-(2,2,2-trifluoroethyl)-15-oxa-4-thia-9,21,27,28-tetrazapentacyclo[17.5.2.1^2,5.1^9,13.0^22,26]octacosa-1(25),2,5(28),19,22(26),23-hexaen-7-yl]carbamoyl]-2-methyl-propyl]-N-methyl-pyrrolidine-3-carboxamide] | 9.00 | 6.59 | 7.47 | 7.34 | < 5.00 | 6.02 | 8.15 | 7.82 | 7.85 |
| CO[C@@H](C)c1ncc(N2CCN(C)CC2)cc1-c1c2c3c(F)c(ccc3n1CC(F)(F)F)-c1csc(n1)C[C@H](NC(=O)[C@H](C(C)C)N(C)C(=O)[C@H]1CCN(C(=O)[C@H](F)Cl)C1)C(=O)N1CCC[C@H](N1)C(=O)OCC(C)(C)C2 (atropisomer, axis not shown; (M)) [Example 1, (3S)-1-[(2R)-2-chloro-2-fluoro-acetyl]-N-[(1S)-1-[[(7S,13S)-25-fluoro-(20M)-20-[2-[(1S)-1-methoxyethyl]-5-(4-methylpiperazin-1-yl)-3-pyridyl]-17,17-dimethyl-8,14-dioxo-21-(2,2,2-trifluoroethyl)-15-oxa-4-thia-9,21,27,28-tetrazapentacyclo[17.5.2.1^2,5.1^9,13.0^22,26]octacosa-1(25),2,5(28),19,22(26),23-hexaen-7-yl]carbamoyl]-2-methyl-propyl]-N-methyl-pyrrolidine-3-carboxamide] | 8.30 | 6.41 | 7.04 |  |  |  | 8.15 | 6.86 | 7.26 |
| CO[C@@H](C)c1ncc(N2CCOCC2)cc1-c1c2c3cc(c(F)cc3n1CC(F)(F)F)-c1csc(n1)C[C@H](NC(=O)[C@H](C(C)C)N(C)C(=O)[C@H]1CCN(C(=O)[C@H](F)Cl)C1)C(=O)N1CCC[C@H](N1)C(=O)OCC(C)(C)C2 (atropisomer, axis not shown; (M)) [Example 24, (3S)-1-[(2R)-2-chloro-2-fluoro-acetyl]-N-[(1S)-1-[[(7S,13S)-24-fluoro-(20M)-20-[2-[(1S)-1-methoxyethyl]-5-morpholino-3-pyridyl]-17,17-dimethyl-8,14-dioxo-21-(2,2,2-trifluoroethyl)-15-oxa-4-thia-9,21,27,28-tetrazapentacyclo[17.5.2.1^2,5.1^9,13.0^22,26]octacosa-1(25),2,5(28),19,22(26),23-hexaen-7-yl]carbamoyl]-2-methyl-propyl]-N-methyl-pyrrolidine-3-carboxamide] |  | 6.55 | 7.47 | 7.28 | < 5.00 | 5.86 | 8.30 | 7.92 | 7.74 |
| CCn1c(-c2cccnc2COC)c2c3cc(ccc31)-c1cc(O)cc(c1)C[C@H](NC(=O)[C@H](C(C)C)N(C)C(=O)C1CN(C(=O)[C@H](F)Cl)C1)C(=O)N1CCC[C@H](N1)C(=O)OCC(C)(C)C2 [RM461-A, reference compound] | 7.35 | 5.10 |  | 7.57 | < 5.00 | 5.22 | 7.31 | < 5.00 |  |
